Non-standard residues stand in square brackets, D forms with d. Residues, ends and D or L forms follow the SMILES beside them. No end group written: not given here. *: point of attachment. Abu = CC[C@H](N)C(=O)O; Acm = CC(=O)NC*
What was measured:
[1] = molecular target: T1, binding of the HPV-16 E7 protein to the RBG protein (Homo sapiens, UniProt P06400); experiment: Binding inhibition assay in vitro: immune precipitation of RBG protein from Hela lysate with radiolabelled HPV-16 E7 (Example 2); settings: for inhibition of the binding of the HPV E7 protein to the RBG protein (in words): summary statement
T1 construct: Whole cell lysates of Hela cells were used as a source of human RBG protein; endogenous in cells; host or cells: HeLa whole cell lysate (RB); rabbit reticulocyte lysate, T7 promoter clone (E7)
T1 sequence (P06400 1-928): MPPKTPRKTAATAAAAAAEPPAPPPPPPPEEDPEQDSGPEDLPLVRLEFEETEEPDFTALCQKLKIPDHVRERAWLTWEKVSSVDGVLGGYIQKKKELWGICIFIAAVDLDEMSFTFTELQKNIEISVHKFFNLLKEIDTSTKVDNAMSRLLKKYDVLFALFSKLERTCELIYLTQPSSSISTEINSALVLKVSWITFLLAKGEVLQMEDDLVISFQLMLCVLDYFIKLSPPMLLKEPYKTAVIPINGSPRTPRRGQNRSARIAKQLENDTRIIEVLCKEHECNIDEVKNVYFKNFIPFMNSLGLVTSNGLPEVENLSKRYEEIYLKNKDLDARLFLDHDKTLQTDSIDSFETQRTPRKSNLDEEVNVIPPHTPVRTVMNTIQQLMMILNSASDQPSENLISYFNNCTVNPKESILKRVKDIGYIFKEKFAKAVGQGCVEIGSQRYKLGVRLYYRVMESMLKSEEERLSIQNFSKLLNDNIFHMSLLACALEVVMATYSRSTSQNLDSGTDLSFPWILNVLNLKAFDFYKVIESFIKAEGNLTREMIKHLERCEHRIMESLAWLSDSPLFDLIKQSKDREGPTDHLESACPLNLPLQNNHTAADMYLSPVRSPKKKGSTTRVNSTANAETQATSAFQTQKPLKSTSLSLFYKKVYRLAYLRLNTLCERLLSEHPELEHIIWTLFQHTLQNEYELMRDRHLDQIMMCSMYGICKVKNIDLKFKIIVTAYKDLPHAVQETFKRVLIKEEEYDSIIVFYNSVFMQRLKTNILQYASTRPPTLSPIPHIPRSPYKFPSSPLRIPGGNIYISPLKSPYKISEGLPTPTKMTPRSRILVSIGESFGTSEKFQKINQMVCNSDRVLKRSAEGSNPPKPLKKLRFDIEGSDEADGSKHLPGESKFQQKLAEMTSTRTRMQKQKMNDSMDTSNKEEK
Description: Peptide A, Peptide B, and Acetyl-GRP 20-27 were assayed for their abilities to inhibit the binding of the HPV-16 E7 protein to the RBG protein. Binding inhibition assays were carried out in vitro using a modification of the procedure described by N. Dyson et al., Science 243: 934-936 1989. Whole cell lysates of Hela cells were used as a source of human RBG protein. Rabbit reticulocyte cell free lysates that permit transcription and translation of exogenously added DNAs served as a source of HPV-16 E7 protein. The HPV-16 E7 gene was added to the rabbit reticulocyte lysate as a recombinant DNA clone under the control of a T7 promoter and incubated for 60 minutes at 30°C in the presence of radiolabeled methionine to allow transcription of the HPV-16 E7 gene and translation into E7 protein that contained radiolabeled methionine. The Hela cell and rabbit reticulocyte lysates were then mixed and incubated at 4°C for 90 minutes. After further manipulations a murine antibody against the RBG protein was added and incubated at 4°C for 60 minutes. Next, a rabbit anti-mouse IgG antibody and protein A sepharose was added to the reaction mixture in order to immune precipitate the RBG protein. At the same time, the E7 protein that was bound to the RBG protein was also precipitated. After an additional 60 minute incubation at 4°C the precipitated proteins were isolated by centrifugation and examined by polyacrylamide gel electrophoresis. Following electrophoresis, the polyacrylamide gel was dried and exposed to x-ray film. […] This biochemical protocol yields a quantitative estimate of the binding of HPV-16 E7 protein to the RBG protein in vitro.
These biochemical reactions can be run with or without added synthetic peptides to evaluate the effects of various concentrations of peptides on the binding of the HPV E7 protein to the RBG protein. In our studies, the addition of peptide A to these reaction mixtures at concentrations of 40 uM, 20 uM, or 2 uM caused a reduction in HPV-16 E7 protein binding to the RBG protein of 90%, 90% and 60% respectively. Addition of Peptide B or Acetyl-GRP 20-27 to the reaction mixture at concentrations up to 60 uM had no effect on HPV-16 E7 protein binding to the RBG protein.

RBG Protein/E7 [2] = molecular target: T2, RBG Protein/E7 (Homo sapiens, UniProt P06400); experiment: In vitro solution assay for E7/RBG protein complex formation (immunoprecipitation, T24 cell lysates); format: binding; set-up: Cell lysates used as a source of RBG protein were prepared from human T24 bladder carcinoma cells; endogenous in cells; host or cells: human T24 bladder carcinoma cell lysate
T2 sequence (P06400 1-928): T1 sequence (P06400 1-928)
Description: (§1) An in vitro solution assay used for the detection of complex formation between E7 protein and p105-RB has been described by Dyson, et al (30). Cell lysates used as a source of RBG protein were prepared from human T24 bladder carcinoma cells as described (30). C36 and the control antibody Pb416 are monoclonal antibodies directed against RGB protein and SV40 large T protein, respectively. These antibodies were a generous gift from E. Harlow (Cold Spring Harbor Laboratories, Cold Spring Harbor, NY). Immunoprecipitates of E7/RBG protein binding reactions containing serially diluted peptide antagonists were dissolved in 35 µl gel loading buffer (30). Five µl was counted directly in Right Safe (Beckman, Palo Alto, CA.) scintillation cocktail and 25 µl was subjected to sodium dodecyl sulphate poly-acrylamide gel electrophoresis. Gels were dried and exposed to Kodak X-AR film at -70 °C overnight. In order to more rapidly assay large numbers of samples and more easily quantitate the binding results, we developed a plate binding assay for the detection of E7/RBG protein association. Purified recombinant E7 was resuspended in 0.1 M sodium carbonate, pH 9.5, at 1 ng/µl. Fifty microliters of this solution was placed into each well of a polyvinyl chloride microtiter plate (COSTAR 2596, Cambridge, MA.). The plate was gently agitated for 18 hours at 4 °C. The E7 solution was aspirated off and 100 µl of plate blocking buffer (PBB) [50mM Hepes 7.0, 250 mM sodium chloride, 0.1% NP4O, 0.5% (w/v) pigskin gelatin, and 0.02% sodium azide] was added per well. The buffer was removed and the plate was washed three times in the above buffer without the gelatin (PB). Five femtomoles of ³⁵S-methionine (Amersham 1100 Ci/mmole, Arlington Heights, IL.) labeled RBG protein prepared in a rabbit reticulocyte lysate was diluted in PB buffer containing various peptide antagonists to a final volume of 50 µl and added to the E7 treated plate. The plate was again incubated at 4 °C with agitation for 1 hour after which the solution was aspirated and each well washed five times with PB. The top of the plate was removed using a hot wire cutting apparatus (D. Lee, Sunnyvale, CA). Each well was placed in 3 ml of Ready Safe scintillation cocktail (Beckman, Palo Alto, CA.) and counted for 1 minute.
(§2) IC₅₀ values represent the average of at least two experiments in which each concentration of inhibitor was tested in triplicate. The variation between experiments was less than 10%. The 50% inhibition concentrations are micromolar. ND = not determined.

RBG Protein/E7 [3] = molecular target: T2, RBG Protein/E7; experiment: Plate binding assay for E7/RBG protein association (E7-coated plate, 35S-labelled RBG protein); set-up: made in house; host or cells: rabbit reticulocyte lysate (RB, in vitro translation)
Description: as §1, §2

[4] = average of at least two experiments, triplicate, read-out: SOLUTION ASSAY RBG Protein/E7 IC₅₀
[5] = average of at least two experiments, triplicate, read-out: PLATE ASSAY RBG Protein/E7 IC₅₀

Compound	IC50 (RBG Protein/E7 [2]; [4])	IC50 (RBG Protein/E7 [3])	IC50 (RBG Protein/E7 [3]; [5])	also measured
CSCC[C@H](NC(=O)[C@H](CC(C)C)NC(=O)[C@H](Cc1c[nH]cn1)NC(=O)CNC(=O)[C@@H](NC(=O)[C@H](C)NC(=O)[C@H](Cc1c[nH]c2ccccc12)NC(=O)[C@H](Cc1c[nH]cn1)NC(C)=O)C(C)C)C(N)=O [Acetyl-GRP 20-27, reference compound]				effect on HPV-16 E7 protein binding to the RBG protein ([1]; concentrations up to 60 uM): no effect; inhibition of the binding of the HPV E7 protein to the RBG protein (in words) [1]: can not inhibit
CC[C@H](NC(=O)[C@H](Cc1ccc(O)cc1)NC(=O)[C@H](CC(C)C)NC(=O)[C@H](CC(=O)O)NC(=O)[C@@H](N)[C@@H](C)O)C(=O)N[C@@H](Cc1ccc(O)cc1)C(=O)N[C@@H](CCC(=O)O)C(=O)N[C@@H](CCC(N)=O)C(=O)N[C@@H](CC(C)C)C(=O)N[C@@H](CC(N)=O)C(=O)N[C@@H](CC(=O)O)C(=O)N[C@@H](CO)C(=O)N[C@@H](CO)C(N)=O [Peptide 17, [ABU²⁴]-E7-(20-32)-AMIDE] (H-TDLY[Abu]YEQLNDSS-NH2)	20000 nM			
CC(=O)NCSC[C@H](NC(=O)[C@H](Cc1ccc(O)cc1)NC(=O)[C@H](CC(C)C)NC(=O)[C@H](CC(=O)O)NC(=O)[C@@H](N)[C@@H](C)O)C(=O)N[C@@H](Cc1ccc(O)cc1)C(=O)N[C@@H](CCC(=O)O)C(=O)N[C@@H](CCC(N)=O)C(=O)N[C@@H](CC(C)C)C(=O)N[C@@H](CC(N)=O)C(=O)N[C@@H](CC(=O)O)C(=O)N[C@@H](CO)C(=O)N[C@@H](CO)C(N)=O [Peptide 18, [ACM²⁴]-E7-(20-32)-AMIDE] (H-TDLYC(Acm)YEQLNDSS-NH2)				IC50 (RBG Protein/E7 [2]): > 100000 nM
Ac-DLYCYEQLN-NH2 [Peptide 14, N-Ac-E7-(21-29)-AMIDE]		40 nM		IC50 (RBG Protein/E7 [2]): 1000 nM
Ac-LYCYEQLNDSS-NH2 [Peptide 15, N-Ac-E7-(22-32)-AMIDE]	10000 nM		25000 nM	
Ac-LYCYEQLNDSS-NH2 [Peptide C, Ac-Leu-Tyr-Cys-Tyr-Glu-Gln-Leu-Asn-Asp-Ser-Ser-NH₂]				concentration at which HPV-16 E7 protein binding to the RBG protein was inhibited ([1]; concentrations as low as): ≤ 1 µM
Ac-TDLYCYEQLN [Peptide 12, N-Ac-E7-(20-29)-ACID]		60 nM		
Ac-TDLYCYEQLN-NH2 [Peptide 13, N-Ac-E7-(20-29)-AMIDE]		80 nM		
DLYCYEQLNDSS-NH2 [Peptide 10, E7-(21-32)-AMIDE]		11400 nM		IC50 (RBG Protein/E7 [2]): 20000 nM
E7-(14-29)-AMIDE (DLQPETTDLYCYEQLN-NH2; UniProt P03129 14-29, looked up, fragment) [Peptide 7]			80 nM	
E7-(18-29)-AMIDE (ETTDLYCYEQLN-NH2; UniProt P03129 18-29, looked up, fragment) [Peptide 8]	400 nM		60 nM	
TDLFCYEQLN-NH2 [Peptide 19, [Phe²³]-E7-(20-29)-AMIDE]	1000 nM		600 nM	
TDLYCFEQLN-NH2 [Peptide 20, [Phe²⁵]-E7-(20-29)-AMIDE]	15000 nM		> 50000 nM	
TDLYCYE-NH2 [Peptide 6, E7-(20-26)-AMIDE]	100000 nM		3300 nM	
TDLYCYENLND-NH2 [Peptide 23, [Asn²⁷]-E7-(20-30)-AMIDE]	1000 nM			
TDLYCYEQ-NH2 [Peptide 5, [Gln27]]-E7-(20-27)-AMIDE]	50000 nM		9100 nM	
TDLYCYEQL-NH2 [Peptide 4, E7-(20-28)-AMIDE]	5000 nM		700 nM	
TDLYCYEQLN [Peptide 11, E7-(20-29)-ACID]		80 nM		
TDLYCYEQLN-NH2 [Peptide 9, E7-(20-29)-AMIDE]		90 nM		IC50 (RBG Protein/E7 [2]): 1000 nM
TDLYCYEQLND-NH2 [Peptide 2, E7-(20-30)-AMIDE]		80 nM		IC50 (RBG Protein/E7 [2]): 1000 nM
TDLYCYEQLNDSS-NH2 [Peptide 1, E7-(20-32)-AMIDE]		50 nM		IC50 (RBG Protein/E7 [2]): 1000 nM
TDLYCYEQLNDSS-NH2 [Peptide A, Thr-Asp-Leu-Tyr-Cys-Tyr-Glu-Gln-Leu-Asn-Asp-Ser-Ser-NH₂]				reduction in HPV-16 E7 protein binding to the RBG protein ([1]; peptide at 2 uM): 60%; reduction in HPV-16 E7 protein binding to the RBG protein ([1]; peptide at 20 uM): 90%; reduction in HPV-16 E7 protein binding to the RBG protein ([1]; peptide at 40 uM): 90%; inhibition of the binding of the HPV E7 protein to the RBG protein (in words) [1]: inhibited
TDLYCYQQL-NH2 [Peptide 21, [Gln²⁶]-E7-(20-28)-AMIDE]	> 100000 nM			
TDLYSYEQLNDSS-NH2 [Peptide 16, [Ser²⁴]-E7-(20-32)-AMIDE]	40000 nM			
TNLYCYEQL-NH2 [Peptide 22, [Asn²¹]-E7-(20-28)-AMIDE]	> 100000 nM			

— patent EP0412762A2, “Peptide inhibitors of human papilloma virus protein binding to retinoblastoma gene proteins” (priority 1989, dated 1991)
